Experimental data from patent publication US20070203091A1, “Methods and therapeutic compositions for improving liver, blood flow and skeletal muscle functions in advanced diseases and aging” (priority 2006, published 2007).

Assay: Laboratory parameters, chemistry: LDH, bilirubin, SGOT, SGPT, Phase I study
Type: in vivo, human
From the text: Serum LDH levels are an established strong independent negative prognostic factor, inversely related to survival in a great variety of adverse clinical conditions. In advanced refractory cancers, high LDH and low Karnofsky's performance status are among the strongest established independent negative prognostic factors of survival and quality of life (29).

[1] = Week 1 (Infusion 1), baseline, N=15

For `Nc1ncnc2c1ncn2[C@@H]1O[C@H](COP(=O)(O)OP(=O)(O)OP(=O)(O)O)[C@@H](O)[C@H]1O` [ATP, adenosine 5′-triphosphate], the “LDH, Change from Baseline, Median” value [1] was 0.0 U/L, the “LDH, Observed Values, Mean” value [1] was 349.0 U/L and the “LDH, Observed Values, Median” value [1] was 265.0 U/L. For the same molecule, the “Phosphorus, Change from Baseline, Mean” value [1] was 0.0 mg/dL, the “Phosphorus, Change from Baseline, Median” value [1] was 0.0 mg/dL and the “Phosphorus, Observed Values, Mean” value [1] was 3.1 mg/dL. For the same molecule, the “Phosphorus, Observed Values, Median” value [1] was 3.2 mg/dL, the “Total Bilirubin, Change from Baseline, Mean” value (“Total Bilirubin, Change … Mean” for short) [1] was 0.0 mg/dL and the “Total Bilirubin, Change from Baseline, Median” value [1] was 0.0 mg/dL. For the same molecule, the “Total Bilirubin, Observed Values, Mean” value [1] was 0.7 mg/dL, the “Total Bilirubin, Observed Values, Median” value [1] was 0.4 mg/dL and the “LDH, Change from Baseline, Median” value (Week 2 (Infusion 2), N=14) was 24.0 U/L. The “LDH, Observed Values, Mean” value (Week 2 (Infusion 2), N=14) was 386.6 U/L, the “LDH, Observed Values, Median” value (Week 2 (Infusion 2), N=14) was 325.5 U/L and the “Phosphorus, Change from Baseline, Mean” value (Week 2 (Infusion 2), N=14) was 0.1 mg/dL. The “Phosphorus, Change from Baseline, Median” value (Week 2 (Infusion 2), N=14) was 0.1 mg/dL, the “Phosphorus, Observed Values, Mean” value (Week 2 (Infusion 2), N=14) was 3.2 mg/dL and the “Phosphorus, Observed Values, Median” value (Week 2 (Infusion 2), N=14) was 3.2 mg/dL. For the same molecule, the “Total Bilirubin, Change … Mean” value (Week 2 (Infusion 2), N=14) was -0.1 mg/dL, the “Total Bilirubin, Change from Baseline, Median” value (Week 2 (Infusion 2), N=14) was 0.0 mg/dL and the “Total Bilirubin, Observed Values, Mean” value (Week 2 (Infusion 2), N=14) was 0.6 mg/dL. For the same molecule, the “Total Bilirubin, Observed Values, Median” value (Week 2 (Infusion 2), N=14) was 0.4 mg/dL, the “LDH, Change from Baseline, Median” value (Week 4 (Infusion 4), N=11) was 3.0 U/L and the “LDH, Observed Values, Mean” value (Week 4 (Infusion 4), N=11) was 277.4 U/L. For the same molecule, the “LDH, Observed Values, Median” value (Week 4 (Infusion 4), N=11) was 211.0 U/L, the “Phosphorus, Change from Baseline, Mean” value (Week 4 (Infusion 4), N=11) was -0.1 mg/dL and the “Phosphorus, Change from Baseline, Median” value (Week 4 (Infusion 4), N=11) was 0.0 mg/dL. For the same molecule, the “Phosphorus, Observed Values, Mean” value (Week 4 (Infusion 4), N=11) was 3.1 mg/dL, the “Phosphorus, Observed Values, Median” value (Week 4 (Infusion 4), N=11) was 3.0 mg/dL and the “Total Bilirubin, Change … Mean” value (Week 4 (Infusion 4), N=11) was 0.2 mg/dL. For the same molecule, the “Total Bilirubin, Change from Baseline, Median” value (Week 4 (Infusion 4), N=11) was -0.1 mg/dL, the “Total Bilirubin, Observed Values, Mean” value (Week 4 (Infusion 4), N=11) was 0.8 mg/dL and the “Total Bilirubin, Observed Values, Median” value (Week 4 (Infusion 4), N=11) was 0.2 mg/dL. The “LDH, Change from Baseline, Median” value (Week 6 (Infusion 6), N=9) was −20.0 U/L, the “LDH, Observed Values, Mean” value (Week 6 (Infusion 6), N=9) was 265.6 U/L and the “LDH, Observed Values, Median” value (Week 6 (Infusion 6), N=9) was 173.0 U/L. The “Phosphorus, Change from Baseline, Mean” value (Week 6 (Infusion 6), N=9) was -0.1 mg/dL, the “Phosphorus, Change from Baseline, Median” value (Week 6 (Infusion 6), N=9) was 0.2 mg/dL and the “Phosphorus, Observed Values, Mean” value (Week 6 (Infusion 6), N=9) was 3.1 mg/dL. For the same molecule, the “Phosphorus, Observed Values, Median” value (Week 6 (Infusion 6), N=9) was 3.3 mg/dL, the “Total Bilirubin, Change … Mean” value (Week 6 (Infusion 6), N=9) was 1.2 mg/dL and the “Total Bilirubin, Change from Baseline, Median” value (Week 6 (Infusion 6), N=9) was -0.1 mg/dL. For the same molecule, the “Total Bilirubin, Observed Values, Mean” value (Week 6 (Infusion 6), N=9) was 1.9 mg/dL, the “Total Bilirubin, Observed Values, Median” value (Week 6 (Infusion 6), N=9) was 0.3 mg/dL and the “LDH, Change from Baseline, Median” value (Week 8 (Infusion 8), N=6) was −25.0 U/L. The “LDH, Observed Values, Mean” value (Week 8 (Infusion 8), N=6) was 245.0 U/L, the “LDH, Observed Values, Median” value (Week 8 (Infusion 8), N=6) was 161.0 U/L and the “Phosphorus, Change from Baseline, Mean” value (Week 8 (Infusion 8), N=7) was 0.3 mg/dL. For the same molecule, the “Phosphorus, Change from Baseline, Median” value (Week 8 (Infusion 8), N=7) was 0.0 mg/dL, the “Phosphorus, Observed Values, Mean” value (Week 8 (Infusion 8), N=7) was 3.4 mg/dL and the “Phosphorus, Observed Values, Median” value (Week 8 (Infusion 8), N=7) was 3.4 mg/dL. For the same molecule, the “Total Bilirubin, Change … Mean” value (Week 8 (Infusion 8), N=7) was -0.0 mg/dL, the “Total Bilirubin, Change from Baseline, Median” value (Week 8 (Infusion 8), N=7) was -0.1 mg/dL and the “Total Bilirubin, Observed Values, Mean” value (Week 8 (Infusion 8), N=7) was 0.4 mg/dL. For the same molecule, the “Total Bilirubin, Observed Values, Median” value (Week 8 (Infusion 8), N=7) was 0.4 mg/dL, the “LDH, Change from Baseline, Median” value (Week 10 (Follow-up), N=5) was −15.0 U/L and the “LDH, Observed Values, Mean” value (Week 10 (Follow-up), N=5) was 214.6 U/L. The “LDH, Observed Values, Median” value (Week 10 (Follow-up), N=5) was 155.0 U/L, the “Phosphorus, Change from Baseline, Mean” value (Week 10 (Follow-up), N=6) was 0.0 mg/dL and the “Phosphorus, Change from Baseline, Median” value (Week 10 (Follow-up), N=6) was 0.3 mg/dL. The “Phosphorus, Observed Values, Mean” value (Week 10 (Follow-up), N=6) was 3.2 mg/dL, the “Phosphorus, Observed Values, Median” value (Week 10 (Follow-up), N=6) was 3.3 mg/dL and the “Total Bilirubin, Change … Mean” value (Week 10 (Follow-up), N=6) was 0.1 mg/dL. For the same molecule, the “Total Bilirubin, Change from Baseline, Median” value (Week 10 (Follow-up), N=6) was -0.1 mg/dL, the “Total Bilirubin, Observed Values, Mean” value (Week 10 (Follow-up), N=6) was 0.5 mg/dL and the “Total Bilirubin, Observed Values, Median” value (Week 10 (Follow-up), N=6) was 0.4 mg/dL. For the same molecule, the “LDH, Change from Baseline, Median” value (Week 13 (Follow-up), N=5) was −27.0 U/L and the “LDH, Observed Values, Mean” value (Week 13 (Follow-up), N=5) was 168.2 U/L.
